In patent US20090028830A1, “Preparation of multipotent stem cells and the use thereof” (priority 2005, published 2009):

Biological target: T1, PKCβ2 (Homo sapiens, UniProt P05771)
T1 construct: mononucleated cells constitutively expressed PKC isoforms α, β1, β2, γ, l/λ and ζ; endogenous in cells; host or cells: mononucleated cells (monocytes)
Assay: PKC isoform activation/translocation in mononucleated cells during P-stem cell differentiation
Assay type: cell-based
Conditions: mononucleated cells pre-treated with Go6976 (1 μM) 30 minutes at 37° C., then Bryostatin-1 (10 nM) at designated time intervals; combined treatment; FIG. 4
Procedure: The constitutively expressed PKC isoforms in mononucleated cells are detected by Western Blot analysis with each PKC isoform-specific antibodies. […] In the FIG. 1, Mo and pc represents mononucleated cell and PKC positive cell lysate, respectively. To examine the specific activation of PKC isoform(s) iii the differentiation of P-stem cells, mononucleated cells are pre-treated with Go6976 (1 μM) for 30 minutes at 37° C. and then incubated with Brvostatin-1 (10 nM) at designated time intervals. […] Therefore, any substances stimulating the activation of PKCβ2 are capable of inducing the differentiation of P-stem cells.

T1 sequence (P05771 1-673 isoform P05771-2): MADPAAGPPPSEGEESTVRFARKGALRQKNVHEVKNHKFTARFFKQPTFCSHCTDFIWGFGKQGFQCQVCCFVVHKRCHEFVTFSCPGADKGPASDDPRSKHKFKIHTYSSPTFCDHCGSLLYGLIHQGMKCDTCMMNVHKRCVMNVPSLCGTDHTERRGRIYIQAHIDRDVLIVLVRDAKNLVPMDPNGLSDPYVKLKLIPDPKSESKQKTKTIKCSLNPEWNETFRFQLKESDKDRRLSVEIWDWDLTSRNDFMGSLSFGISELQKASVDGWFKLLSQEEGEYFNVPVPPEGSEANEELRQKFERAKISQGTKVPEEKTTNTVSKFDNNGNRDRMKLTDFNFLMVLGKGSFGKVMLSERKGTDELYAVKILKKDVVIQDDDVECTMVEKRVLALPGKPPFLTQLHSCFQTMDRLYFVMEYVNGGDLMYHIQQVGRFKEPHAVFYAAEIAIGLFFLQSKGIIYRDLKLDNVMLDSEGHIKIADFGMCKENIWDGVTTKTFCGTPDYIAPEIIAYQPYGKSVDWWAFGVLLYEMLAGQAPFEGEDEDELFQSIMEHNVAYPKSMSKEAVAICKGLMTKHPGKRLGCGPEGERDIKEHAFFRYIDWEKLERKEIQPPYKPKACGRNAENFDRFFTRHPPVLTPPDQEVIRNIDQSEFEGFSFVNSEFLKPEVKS

Row | SMILES | specific activation of PKC isoform(s) (translocation from cytosol to plasma membrane)
1 | Cn1c2ccccc2c2c3c(c4c5ccccc5n(CCC#N)c4c21)CNC3=O [Go6976] | only PKCβ2 is activated and translocates from cytosol to plasma membrane
2 | CCC/C=C/C=C/C(=O)O[C@H]1/C(=C/C(=O)OC)C[C@H]2C[C@H]([C@@H](C)O)OC(=O)C[C@H](O)C[C@@H]3C[C@H](OC(C)=O)C(C)(C)[C@](O)(C[C@@H]4C/C(=C/C(=O)OC)C[C@H](/C=C/C(C)(C)[C@]1(O)O2)O4)O3 [Brvostatin-1, Bryostatin-1] | only PKCβ2 is activated and translocates from cytosol to plasma membrane
